Source: PMC7918931 (Viruses, 2021)

What was measured:
[1] = system: ~115 known WW domains (GST-fusion proteins); assay type: binding, mammalian
[2] = system: SMURF2 WW domain #3 (SMURF2-3); assay type: binding
[3] = molecular target: GST-SMURF2-WW3 (Homo sapiens, UniProt Q9HAU4); assay type: binding; conditions: pH 7.4
Sequence of GST-SMURF2-WW3 (Q9HAU4 297-330): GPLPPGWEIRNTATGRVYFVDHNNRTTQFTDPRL

`CC[C@H](C)[C@H](NC(=O)[C@H](C)NC(=O)[C@H](CCC(=O)O)NC(=O)[C@H](CCSC)NC(=O)[C@H](Cc1ccc(O)cc1)NC(=O)[C@H](CCC(=O)O)NC(=O)[C@@H]1CCCN1C(=O)[C@@H]1CCCN1C(=O)[C@H](C)NC(=O)[C@@H](NC(=O)[C@@H]1CCCN1C(=O)[C@H](CC(C)C)NC(=O)[C@@H](NC(=O)[C@@H](NC(=O)[C@H](CCCNC(=N)N)NC(=O)[C@H](CCCNC(=N)N)NC(=O)[C@@H](N)CCSC)C(C)C)[C@@H](C)CC)[C@@H](C)O)C(=O)N[C@@H](CCCCNC(=O)CCCC[C@@H]1SC[C@@H]2NC(=O)N[C@@H]21)C(=O)O` [eVP40-WT peptide] was tested, and the “interaction with host WW domains on array” value [1] was “interacted with a select number of host WW domains”, the “interaction with SMURF2 WW domain #3 on array” value [2] was “positive interaction” and the Bmax [3] was 39 RU.
